For 23 molecules, CC50 and EC50 results are on record in patent publication US20230091047A1 (priority 2019, published 2023).

One series concerns HepG2 cells. Briefly: in vitro. It is filed as cell-based. Particulars: HepG2 or HepG2.117 cells, ATPlite, mean value, read-out: CC50 (μM, mean value). Summed up: (§1)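 Luminescent ATP quantitation served as the viability endpoint following a 3- or 4-day incubation with test compounds.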
For orientation: ATP-based viability assays read luminescence as a measure of living cells.

Series [1] deals with HBV (HepG2.117 cell line, inducibly HBV producing). Briefly: Anti-HBV activity: intracellular HBV DNA by real-time PCR in HepG2.117 cells after 3 days of treatment. In kind it is cell-based, hepatitis B virus. In outline:
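Antiviral effect is expressed through intracellular HBV DNA levels, determined by real-time PCR with a virus-specific probe. These levels were measured after 3 days of treatment with compound dilutions, in HepG2.117 cells induced to replicate HBV.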
A general note: Real-time PCR tracks product formation cycle by cycle.

A short description of a further series: in vitro. It is filed as cell-based. Particulars: human, HepG2 or HepG2.117 cells, ATPlite, 3-days incubation (not marked with *), mean value. Summed up:
as §1

[2] abbreviates: 3-days incubation (unmarked values).
Where [3] appears, read: HepG2.117 cells, 3 days of treatment, intracellular HBV DNA by real-time PCR; mean value; read-out: EC50 (μM, mean value).
[4] abbreviates: 3-days incubation (not marked with *).
Setting [5] is: HepG2.117 cells, intracellular HBV DNA by real-time PCR, 3 days of treatment, mean value; read-out: EC50 (μM, mean value).

SMILES strings stand for the structures. Like-named read-outs stand apart in the source and are kept apart here.

In general, CC50 refers to the concentration at which the toxic effect on the cells reaches its halfway point. Broadly, the EC50 is the concentration needed to bring the measured effect to its halfway point. `CNC(=O)c1ccc(-n2c(NC(C)C)nc3c(c2=O)C[C@@H](C)N(C(=O)c2ccc(Cl)c(Cl)c2)C3)c(Cl)c1` (atropisomer, axis not shown) [Compound C293b, 3-chloro-4-[(6R)-7-(3,4-dichlorobenzoyl)-6-methyl-4-oxo-2-[(propan-2-yl)amino]-5,6,7,8-tetrahydropyrido[3,4-d]pyrimidin-3(4H)-yl]-N-methylbenzamide]: the CC50 in the series on HepG2 cells (setting [2]) was determined as 27.1 µM. Besides, the EC50 in series [1] (setting [3]) amounted to 0.06 µM. Turning to `Cc1cc(-n2cccn2)ccc1-n1c(NC(C)C)nc2c(c1=O)C[C@@H](C)N(C(=O)c1ccc(Cl)c(Cl)c1)C2` (atropisomer, axis not shown) [Compound C308a, (6R)-7-(3,4-dichlorobenzoyl)-6-methyl-3-[2-methyl-4-(1H-pyrazol-1-yl)phenyl]-2-[(propan-2-yl)amino]-5,6,7,8-tetrahydropyrido[3,4-d]pyrimidin-4(3H)-one], the CC50 in the series on HepG2 cells (setting [2]) was above 50 µM. Moreover, the concentration giving a half-maximal response (EC50) in series [1] (setting [3]) was found to be 0.11 µM. On the same counts, the results for `COc1ccccc1-n1c(NCc2ccc3c(c2)OCO3)nc2c(c1=O)CCN(C(=O)c1ccc(Cl)c(Cl)c1)C2` (single isomer, unassigned) [Compound C26a, 2-{[(2H-1,3-benzodioxol-5-yl)methyl]amino}-7-(3,4-dichlorobenzoyl)-3-(2-methoxyphenyl)-5,6,7,8-tetrahydropyrido[3,4-d]pyrimidin-4(3H)-one] are above 50 µM and 1.42 µM. Consider `COc1ccccc1-n1c(NCc2ccc3c(c2)OCO3)nc2c(c1=O)CCN(C(=O)c1ccc(Cl)c(Cl)c1)C2` (single isomer, unassigned) [Compound C26b, 2-{[(2H-1,3-benzodioxol-5-yl)methyl]amino}-7-(3,4-dichlorobenzoyl)-3-(2-methoxyphenyl)-5,6,7,8-tetrahydropyrido[3,4-d]pyrimidin-4(3H)-one], for which, in the series on HepG2 cells (setting [2]), the CC50 is above 50 µM. For the same molecule, the EC50 in series [1] (setting [3]) is 1.04 µM. Regarding `COc1ccc(CNc2nc3c(c(=O)n2-c2ccccc2OC)C[C@H](C)N(C(=O)c2ccc(Cl)c(Cl)c2)C3)cc1` (single isomer, unassigned) [Compound C36Ba], the 50% cytotoxic concentration (CC50) in the series on HepG2 cells (setting [2]) is above 50 µM. Moreover, the EC50 in series [1] (setting [3]) was found to be 1.21 µM.

`COc1ccc(CNc2nc3c(c(=O)n2-c2ccccc2OC)C[C@H](C)N(C(=O)c2ccc(Cl)c(Cl)c2)C3)cc1` (single isomer, unassigned) [Compound C36Bb]: the CC50 in the series on HepG2 cells (setting [2]) was above 50 µM. Further, the EC50 in series [1] (setting [3]) was above 50 µM.

`COc1ccccc1-n1c(N[C@@H](C)CO)nc2c(c1=O)CCN(C(=O)c1ccc(Cl)c(Cl)c1)C2` (single isomer, unassigned) [Compound C62Bb, 7-(3,4-dichlorobenzoyl)-2-{[(2*S)-1-hydroxypropan-2-yl]amino}-3-(2-methoxyphenyl)-5,6,7,8-tetrahydropyrido[3,4-d]pyrimidin-4(3H)-one]: the half-maximal cytotoxic concentration (CC50) in the series on HepG2 cells (setting [2]) was above 50 µM. Further, the 50% effective concentration (EC50) in series [1] (setting [3]) amounted to 6.6 µM. On the same counts, the results for `COc1ccccc1-n1c(N[C@H](C)C(F)(F)F)nc2c(c1=O)CCN(C(=O)c1ccc(Cl)c(Cl)c1)C2` (single isomer, unassigned) [Compound C101b] are 33.2 µM and 9.59 µM. The matching figures for `CNC(=O)c1ccc(-n2c(NC(C)C)nc3c(c2=O)C[C@@H](C)N(C(=O)c2ccc(Cl)c(Cl)c2)C3)c(Cl)c1` (single isomer, unassigned) [Compound C293a]: 33.4 µM and 0.06 µM. Regarding `Cc1cc(-n2cccn2)ccc1-n1c(NC(C)C)nc2c(c1=O)C[C@@H](C)N(C(=O)c1ccc(Cl)c(Cl)c1)C2` (single isomer, unassigned) [Compound C308b], the CC50 in the series with HepG2 cells (setting [2]) is above 50 µM. Besides, the EC50 in series [1] (setting [3]) is 0.16 µM. The matching figures for `CNC(=O)c1ccc(-n2c(NC(C)C)nc3c(c2=O)C[C@@H](C)N(C(=O)c2ccc(Cl)c(Cl)c2)C3)c(OC)c1` (single isomer, unassigned) [Compound C314b]: above 50 µM and 0.22 µM. Turning to `CNC(=O)c1ccc(-n2c(NC(C)C)nc3c(c2=O)C[C@@H](C)N(C(=O)c2ccc(Cl)c(Cl)c2)C3)c(C(F)(F)F)c1` (single isomer, unassigned) [Compound C340b], the CC50 with HepG2 cells (setting [2]) worked out at 29.8 µM. Besides, the half-maximal effective concentration (EC50) in series [1] (setting [3]) came to 0.39 µM.

For the molecule `CCc1cc(C(=O)NC)ccc1-n1c(NC(C)C)nc2c(c1=O)C[C@@H](C)N(C(=O)c1ccc(Cl)c(Cl)c1)C2` (single isomer, unassigned) [Compound C383b], the CC50 in the series with HepG2 cells (setting [4]) is above 45 µM. Moreover, the concentration for a half-maximal effect (EC50) in series [1] (setting [5]) was found to be 0.17 µM. Turning to `CNC(=O)c1ccc(-n2c(N[C@@H](C)c3ccccc3)nc3c(c2=O)C[C@@H](C)N(C(=O)c2ccc(Cl)c(Cl)c2)C3)c(Cl)c1` (single isomer, unassigned) [Compound C386b], the 50% cytotoxic concentration (CC50) in the series with HepG2 cells (setting [4]) is above 50 µM. Besides, the EC50 in series [1] (setting [5]) stood at 0.1 µM. On the same counts, the results for `CNC(=O)c1ccc(-n2c(N[C@@H](C)C3CC3)nc3c(c2=O)C[C@@H](C)N(C(=O)c2ccc(Cl)c(Cl)c2)C3)c(Cl)c1` (single isomer, unassigned) [Compound C387b] are 36.8 µM and 0.06 µM. On the same counts, the results for `CC(C)Nc1nc2c(c(=O)n1-c1ccc(-c3nccn3C)cc1Cl)C[C@@H](C)N(C(=O)c1ccc(Cl)c(Cl)c1)C2` (single isomer, unassigned) [Compound C392b] are 26.7 µM and 0.12 µM.

With `CC(C)Nc1nc2c(c(=O)n1-c1ccc(-c3ncc[nH]3)cc1Cl)C[C@@H](C)N(C(=O)c1ccc(Cl)c(Cl)c1)C2` (single isomer, unassigned) [Compound C393a], the CC50 in the series on HepG2 cells (setting [4]) was 14.1 µM. In addition, the EC50 in series [1] (setting [5]) is 0.12 µM. Regarding `CC(C)Nc1nc2c(c(=O)n1-c1ccc(-c3ncc[nH]3)cc1Cl)C[C@@H](C)N(C(=O)c1ccc(Cl)c(Cl)c1)C2` (single isomer, unassigned) [Compound C393b], the CC50 in the series on HepG2 cells (setting [4]) was determined as 31.7 µM. In addition, in series [1] (setting [5]), the EC50 was 0.24 µM.

On to `Cc1cc(-c2ncc[nH]2)ccc1-n1c(NC(C)C)nc2c(c1=O)C[C@@H](C)N(C(=O)c1ccc(Cl)c(Cl)c1)C2` (single isomer, unassigned) [Compound C399a], for which the 50% cytotoxic concentration (CC50) with HepG2 cells (setting [4]) turned out to be 27.7 µM. The EC50 in series [1] (setting [5]) stood at 0.14 µM. On the same counts, the results for `Cc1cc(-c2ncc[nH]2)ccc1-n1c(NC(C)C)nc2c(c1=O)C[C@@H](C)N(C(=O)c1ccc(Cl)c(Cl)c1)C2` (single isomer, unassigned) [Compound C399b] are 27 µM and 0.16 µM. The matching figures for `COc1ccc([C@H](C)Nc2nc3c(c(=O)n2-c2ccc(NC(C)=O)cc2)C[C@@H](C)N(C(=O)c2ccc(Cl)c(Cl)c2)C3)cc1` (single isomer, unassigned) [Compound C410a]: above 50 µM and 0.95 µM. Consider `CC(C)Nc1nc2c(c(=O)n1-c1ccc(S(C)(=O)=O)cc1)C[C@H](C)N(C(=O)c1ccc(Cl)c(Cl)c1)C2` [Compound C141, (6S)-7-(3,4-dichlorobenzoyl)-3-[4-(methanesulfonyl)phenyl]-6-methyl-2-[(propan-2-yl)amino]-5,6,7,8-tetrahydropyrido[3,4-d]pyrimidin-4(3H)-one], for which, in the series on HepG2 cells (setting [2]), the CC50 is above 50 µM. Molecule `CC(C)Nc1nc2c(c(=O)n1-c1ccc(C(=O)O)cc1)C[C@@H](C)N(C(=O)c1ccc(Cl)c(Cl)c1)C2` [Compound I70, (R)-4-(7-(3,4-dichlorobenzoyl)-2-(isopropylamino)-6-methyl-4-oxo-5,6,7,8-tetrahydropyrido[3,4-d]pyrimidin-3(4H)-yl)benzoic acid] had a CC50 at 3 days in the series “in vitro” above 50 µM. Moreover, in series [1] (Hepatitis B virus, HepG2.117, 72 h, HepG2.117 cells, intracellular HBV DNA by real-time PCR, 3 days of treatment, mean value; read-out: EC50 (μM, mean value)), the EC50 was found to be 3.6 µM.
